Assay results: ChEMBL document CHEMBL2169878 (J Med Chem, 2012)

Experiments:
[1] = test system: Plasmodium falciparum; experiment: Antiplasmodial activity against chloroquine-sensitive Plasmodium falciparum D10 infected in human RBC after 72 hrs by parasite lactate dehydrogenase assay; type: functional, organism-based; details: D10, 72 h
[2] = test system: Plasmodium falciparum; experiment: Antiplasmodial activity against chloroquine-resistant Plasmodium falciparum W2 infected in human RBC after 72 hrs by parasite lactate dehydrogenase assay; type: functional, organism-based; details: W2, 72 h
[3] = test system: Plasmodium falciparum; experiment: Antiplasmodial activity against chloroquine-sensitive Plasmodium falciparum NF54 infected in human erythrocytes assessed as inhibition of [3H]hypoxanthine incorporation incubated for 48 hrs prior to [3H]hypoxanthine addition measured after 48 hrs by liquid scintillation counting; type: functional, organism-based
[4] = test system: Plasmodium falciparum; experiment: Antiplasmodial activity against chloroquine-resistant Plasmodium falciparum K1 infected in human erythrocytes assessed as inhibition of [3H]hypoxanthine incorporation incubated for 48 hrs prior to [3H]hypoxanthine addition measured after 48 hrs by liquid scintillation counting; type: functional, organism-based
[5] = Cytotoxicity against mouse NIH3T3 cells after 24 hrs by neutral red dye uptake assay; type: cell-based; details: read-out: TC50
[6] = Cytotoxicity against human HepG2 cells after 24 hrs by neutral red dye uptake assay; type: cell-based; details: read-out: TC50
[7] = test system: Plasmodium falciparum; experiment: Resistance ratio of IC50 for chloroquine-resistant Plasmodium falciparum W2 to IC50 for chloroquine-sensitive Plasmodium falciparum D10; type: functional
[8] = test system: Salmonella typhimurium; experiment: Mutagenicity against Salmonella typhimurium TA98 assessed as revertants at 3 uM incubated for 90 mins followed by drug washout measured after 2 days relative to positive control; type: toxicity, organism-based; details: salmonella enterica subsp. enterica serovar typhimurium, 1.5 h
[9] = test system: Salmonella typhimurium; experiment: Mutagenicity against Salmonella typhimurium TA98 assessed as revertants at 6 uM incubated for 90 mins followed by drug washout measured after 2 days relative to positive control; type: toxicity, organism-based; details: salmonella enterica subsp. enterica serovar typhimurium, 1.5 h
[10] = test system: Salmonella typhimurium; experiment: Mutagenicity against Salmonella typhimurium TA98 assessed as revertants at 12 uM incubated for 90 mins followed by drug washout measured after 2 days relative to positive control; type: toxicity, organism-based; details: salmonella enterica subsp. enterica serovar typhimurium
[11] = test system: Salmonella typhimurium; experiment: Mutagenicity against Salmonella typhimurium TA98 assessed as revertants at 24 uM incubated for 90 mins followed by drug washout measured after 2 days relative to positive control; type: toxicity, organism-based; details: salmonella enterica subsp. enterica serovar typhimurium, 1.5 h
[12] = test system: Salmonella typhimurium; experiment: Mutagenicity against Salmonella typhimurium TA98 assessed as revertants at 48 uM incubated for 90 mins followed by drug washout measured after 2 days relative to positive control; type: toxicity, organism-based; details: salmonella enterica subsp. enterica serovar typhimurium, 1.5 h
[13] = test system: Salmonella typhimurium; experiment: Mutagenicity against Salmonella typhimurium TA100 assessed as revertants at 1.5 uM incubated for 90 mins followed by drug washout measured after 2 days relative to positive control; type: toxicity, organism-based; details: salmonella enterica subsp. enterica serovar typhimurium, 1.5 h
[14] = test system: Salmonella typhimurium; experiment: Mutagenicity against Salmonella typhimurium TA100 assessed as revertants at 3 uM incubated for 90 mins followed by drug washout measured after 2 days relative to positive control; type: toxicity, organism-based; details: salmonella enterica subsp. enterica serovar typhimurium, 1.5 h
[15] = test system: Salmonella typhimurium; experiment: Mutagenicity against Salmonella typhimurium TA100 assessed as revertants at 6 uM incubated for 90 mins followed by drug washout measured after 2 days relative to positive control; type: toxicity, organism-based; details: salmonella enterica subsp. enterica serovar typhimurium, 1.5 h
[16] = test system: Salmonella typhimurium; experiment: Mutagenicity against Salmonella typhimurium TA100 assessed as revertants at 12 uM incubated for 90 mins followed by drug washout measured after 2 days relative to positive control; type: toxicity, organism-based; details: salmonella enterica subsp. enterica serovar typhimurium
[17] = test system: Salmonella typhimurium; experiment: Mutagenicity against Salmonella typhimurium TA100 assessed as revertants at 24 uM incubated for 90 mins followed by drug washout measured after 2 days relative to positive control; type: toxicity, organism-based; details: salmonella enterica subsp. enterica serovar typhimurium
[18] = test system: Salmonella typhimurium; experiment: Mutagenicity against Salmonella typhimurium TA100 assessed as revertants at 48 uM incubated for 90 mins followed by drug washout measured after 2 days relative to positive control; type: toxicity, organism-based; details: salmonella enterica subsp. enterica serovar typhimurium
[19] = test system: Salmonella typhimurium; experiment: Mutagenicity against Salmonella typhimurium TA98 assessed as revertants at 1.5 uM incubated for 90 mins followed by drug washout measured after 2 days relative to positive control; type: toxicity, organism-based; details: salmonella enterica subsp. enterica serovar typhimurium, 1.5 h

| SMILES | IC50 [1] | IC50 [2] | IC50 [3] | IC50 [4] | CC50 at 24 h [5] | CC50 at 24 h [6] | other results |
| --- | --- | --- | --- | --- | --- | --- | --- |
| Clc1cccc(C(Nc2ccnc3cc(Cl)ccc23)c2ccc(CN3CCN(c4ccnc5cc(Cl)ccc45)CC3)c(Cl)c2)c1 (racemic) | 104 nM | 58 nM | 83 nM | 10 nM |  |  |  |
| Clc1ccccc1C(c1ccccc1)(c1ccccc1)n1ccnc1 [CLOTRIMAZOLE] |  |  |  |  | > 48000 nM | > 48000 nM |  |
| Clc1ccc(C(Nc2ccnc3cc(Cl)ccc23)c2ccc(CN3CCN(Cc4ccccc4)CC3)cc2)cc1 (racemic) | 163 nM | 790 nM |  |  |  |  | Ratio IC50 [7]: 4.8 |
| Clc1cccc(C(Nc2ccnc3cc(Cl)ccc23)c2ccc(CN3CCOCC3)c(Cl)c2)c1 (racemic) | 442 nM | 277 nM | 47 nM | 107 nM |  |  |  |
| COc1ccc2nccc(NC(c3cccc(Cl)c3)c3ccc(CN4CCOCC4)c(Cl)c3)c2c1 (racemic) | 198 nM | 229 nM | 81 nM | 114 nM |  |  |  |
| COc1ccc2nccc(NC(c3cccc(Cl)c3)c3ccc(CN4CCCC4)c(Cl)c3)c2c1 (racemic) | 56 nM | 90 nM | 27 nM | 34 nM | 24000 nM | 12000 nM | Activity [8]: 0%; Activity [9]: 0%; Activity [10]: 3%; Activity [11]: 3%; Activity [12]: 3%; Activity [13]: 3%; Activity [14]: 4%; Activity [15]: 4%; Activity [16]: 4%; Activity [17]: 5%; Activity [18]: 10%; Activity [19]: 3% |
